Test system: HeLa cells
Test: ER-to-Golgi trafficking in HeLa cells (ERES staining, mannosidase-II RUSH reporter)
Format: cell-based
Conditions: RUSH reporter 20 min after biotin
Experimental: In A, HeLa cells expressing flag-tagged LTK were treated with 1 μM of crizotinib or ceritinib for 30 minutes. Afterwards, cells were lysed and immunoblotted against phosphorylated LTK, which is used as a surrogate for the active form of LTK. […] B, HeLa cells were treated with 1 μM ceritinib for 30 minutes followed by fixation and staining for Sec31A to label ERES. Cells were imaged by confocal microscopy and ERES were counted using ImageJ. C, HeLa cells stably expressing mCherry-tagged mannosidase-II RUSH reporter. Cells were treated with biotin to release the reporter from the ER. After 20 min, a time point where most of the reporter has reached the Golgi, cells were fixed and immunostained for GM130 to label the Golgi apparatus. […] D, IgA secreting AMO-1 cells were treated for 3 h with the indicated doses of crizotinib and the amount of IgA in cell supernatant was determined by ELISA.

C[C@@H](Oc1cc(-c2cnn(C3CCNCC3)c2)cnc1N)c1c(Cl)ccc(F)c1Cl [crizotinib, 3-[(1R)-1-(2,6-dichloro-3-fluorophenyl)ethoxy]-5-(1-piperidin-4-ylpyrazol-4-yl)pyridin-2-amine]
ER-to-Golgi trafficking: less of the reporter in the Golgi region
